Experimental data reported in patent US20230137849A1, “USE OF A COMPOUND OF THE DIURETICS CLASS FOR TREATING CANCER” (AZELEAD, priority 2017, published 2023).
Like-named read-outs stand apart in the source and are kept apart here.

Experiments:
[1] = tested on: hematopoietic stem cells CD41:GFP accumulated in the CHT; assay type: in vivo; conditions: for reduction of the number of HSCs accumulated in CHT: 10 μM (FIG. 3; b188 prints 10 μl), 24 h, vs reference embryos treated with DMSO; for efficiency on number of cells migrated to CHT: 24 hours, FIG. 6
From the text: (§1) A method for determining whether a molecule is capable of treating cancer in the pre-metastatic state has been described in international application WO 2011/007259. This method consists in isolating molecules capable of inhibiting the emergence of hematopoietic stem cells from the floor of the aorta without cell division, but by endothelial-to-hematopoietic transition. This emergence involves the loss of cell polarity of emerging cells, the loss of cellular junctions with these neighboring cells and the acquisition of migratory properties. This model is used because it mimics each stage of the epithelial-mesenchymal transition, the first stage of cancer metastasis. The endothelial-to-hematopoietic transition takes place in a region of the embryo called Aorta-Gonad-Mesonephros (AGM).
(§2) The colonization of hematopoietic tissues by hematopoietic stem cells mimics the appearance and/or progression of a metastatic cancerous tumor since it involves intravasation, extravasation, or the migration of HSCs following a gradient of SDF-1. The first colonized tissue is caudal hematopoietic tissue (CHT).
(§3) In order to evaluate the inhibition of the endothelial-to-hematopoietic transition, transgenic CD41:GFP (green fluorescent protein) embryos are used. HSCs express GFP under the control of the CD41 promoter, which allows them to be monitored in vivo under a fluorescence microscope. The read-out is the number of hematopoietic stem cells CD41:GFP accumulated in the AGM (mimicking the initiation of the metastatic process) and/or in the CHT of the zebrafish embryo (mimicking the progression of the metastatic process). The accumulation of CD41:GFP cells in CHT implies that each cell has made an endothelial-to-hematopoietic transition, intravasation, extravasation at the CHT level, has settled in a stromal niche and has proliferated.
The Tg transgenic zebrafish line (CD41:GFP) is maintained in accordance with the protocols described by the Ethical Committee for Animal Experimentation. The fish are kept at a temperature of 28° C. and their development stage is determined as before. The molecules are tested on zebrafish embryos at the 25 hpf stage. The embryos are decorticated and transferred to a 96-well plate (1 embryo/well) containing the test compounds in a final volume of 100 μl of the embryonic growth medium (60 μg salt for 1 ml H2O). […] The treated embryos are incubated for 24 hours in an incubator at 28° C.
The embryos are imaged with a plate reader after being anesthetized with 0.16% tricaine (ethyl-3-aminobenzoate). A quantification of the number of fluorescent cells (CD41:GFP) accumulated in the CHT is carried out.
Althiazide was tested on the zebrafish embryo according to the method previously described in the international application WO 2011/007259. This method consists in isolating molecules capable of inhibiting the emergence of hematopoietic stem cells from the floor of the aorta without cell division, but by endothelial-to-hematopoietic transition. This emergence involves the loss of cell polarity of emerging cells, the loss of cellular junctions with these neighboring cells and the acquisition of migratory properties. This model is used, in the context of the invention, because it mimics each of the stages of the epithelial-to-mesenchymal transition, the first stage of the cancerous metastasis. The endothelial-to-hematopoietic transition takes place in a region of the embryo called Aorto-Gonado-Mesonephros (AGM).
as §2, with “metastatic” for “metastatic cancerous”, “SDF1.” for “SDF-1.”, “(CHT). This physiological process is considered, in the context of the invention, as representative of the appearance and/or progression of a metastatic tumor. […]” for “(CHT).”

[2] = tested on: hematopoietic stem cells CD41:GFP accumulated in the AGM; assay: Zebrafish embryo test: HSC accumulated in the AGM (initiation of the metastatic process); assay type: in vivo; conditions: althiazide 10 μM (FIG. 2; b187 prints 10 μl), embryos 25 hpf treated 24 h, vs DMSO
From the text: as §1
as §3, with “The accumulation of CD41:GFP cells in CHT implies that each cell has made an endothelial-to-hematopoietic transition, intravasation, extravasation at the CHT level, has settled in a stromal niche and has proliferated.” left out

[3] = tested on: ZEB1; assay: q-RT-PCR expression of EMT markers in MDA-MB-231 cells under hypoxia: ZEB1; assay type: cell-based, human; conditions: althiazide 100 μM, hypoxic conditions (1% O2), vs control, FIG. 11
Description: The cell cultures are carried out on human breast cancer epithelial cell lines MDA-MB-231 (HTB-26™), resulting from metastases present in a pleural effusion of a patient with a mammary adenocarcinoma. This line is used as a triple negative cancer cell model (no expression of ER-type nuclear estrogen receptors, nuclear progesterone receptors or overexpression of the oncogene encoding HER2 protein (Human Epidermal Growth factor Receptor-2).
The cells were cultured in DMEM medium (Eurobio, Fance) supplemented with 10% fetal calf serum (FCS) (Eurobio, Fance) at 37° C., 5% CO2. The medium was changed every 3 days.
The cells were placed in a controlled atmosphere at 1% oxygen 24 hours before the application of the different treatments.
The expression of the mRNAs is measured by the q-RT-PCR method. The cells were seeded at the density of 500,000 cells/well in 6-well plates. After 24 hours at 37° C., 5% CO2 and 1% O2, the medium was renewed and added the various treatments. RNA was isolated using TRI Reagent® (sigma), assayed and retro-transcribed into complementary DNA using the PrimeScript RT Reagent Kit (Takara). The expression levels of the mRNA of the genes of interest were determined by quantitative PCR (LightCycler® 480 Instrument II) with the primers listed in Table 2: […]
The results are calculated using the Delta Delta Ct (Δ ΔCt) method.

## C=CCSCC1Nc2cc(Cl)c(S(N)(=O)=O)cc2S(=O)(=O)N1 (racemic) [althiazide]
[1]
  reduction of the number of HSCs accumulated in CHT: 41%
[1]; listed as Althiazide
  reduction of the number of HSCs accumulated in CHT: most effective chemical compound
[1]; 10 μM both, control DMSO 1%, FIG. 5
  anti-migratory effect (HSCs accumulated in CHT) compared with dasatinib: as effective as dasatinib
[1]; 10 μM, larger number of embryos (n=64 and n=74), FIG. 4
  decrease in the number of cells that colonized/migrated in CHT, second test: 36.2%
[1]; althiazide 1 μM
  efficiency on number of cells migrated to CHT: no effect
[1]; althiazide 10 μM
  efficiency on number of cells migrated to CHT: 50%
[1]; althiazide 100 μM
  efficiency on number of cells migrated to CHT: 100%
[1]; thiazide compounds test, 10 μM or 25 μM, FIG. 9
  invasion of CHT by CD41:GFP cells / number of cells having colonized CHT, in words: most effective chemical compound
[1]; thiazide compounds test, FIG. 9, concentration not stated (tested at 10 and 25 μM)
  reduction of migration (cells having colonized CHT): 30%
[1]; zebrafish, in vivo
  toxic effects in the dose effect test: appearance of toxic effects
[2]
  number of HSC accumulated in the AGM compared with reference embryos; local migration of HSC: greater
[2]; listed as thiazide
  number of HSC accumulated in the AGM compared with reference embryos; local migration of HSC: reduction of the junction loss and the local migration of HSC
[3]
  change in expression of ZEB1: −14%
